# Data as given in patent US20210071180A1, “MICRORNA 584-5P COMPOSITIONS AND METHODS FOR TREATING CANCER” (BOARD OF REGENTS, THE UNIVERSY OF TEXAS SYSTEM, priority 2018, published 2021).
# Assays:
# Assay type in all cases: cell-based
# MB cells = test: Immunofluorescence of mitotic spindles / mitotic catastrophe
# Method: DNA is stained with DAPI (blue), whereas spindle is stained with β-tubulin (red) (below).
# Immunofluorescence and Western blot analysis Immunofluorescence analyses was carried out on cells fixed in 4% paraformaldehyde (Imam, J. S. et al. PLoS One 7, e52397, (2012)). […]
# VCR disrupts the integrity of the mitotic spindle and destabilizes microtubules (George, P., Journey, L. J. & Goldstein, M. N. J Natl Cancer Inst 35, 355-375 (1965)). […] In FIG. 12A, the p-values were calculated using standard Student t-tests. […] The p-values were calculated using standard Student t-tests. […] In FIG. 11F, the p-values were calculated using standard Student t-tests. […] In FIG. 11H, The p-values were calculated using standard Student t-tests. […] Quantitative real-time PCR. […]
# D556Med cells = test: c-Myc overexpression rescue, cell viability/clonogenic/migration; conditions: cells transfected with c-Myc expression vector
# Method: FIG. 15A depicts a photomicrograph showing migrated MB cells transfected with control plasmid, c-Myc overexpression plasmid or c-Myc overexpression plasmid+miR-584-5p mimic.
# Because c-Myc supports cancer stem cell growth, promotes radioresistance (Gravina, G. L. et al. Radiat Res 185, 411-422, (2016)), and has elevated levels in VCR-resistant cancer cells (He, Y., Zhang, J., Zhang, J. & Yuan, Y. Chin Med J (Engl) 113, 848-851 (2000)), it was tested whether miR-584-5p and its target genes may regulate c-Myc-amplified MB growth and therapy sensitization by targeting c-Myc levels/functions. […] In FIG. 14D, the p-values were calculated using standard Student t-tests. Error bars represent mean±SEM. Because no predicted miR-584-5p binding site exists in the c-Myc 3′-UTR, miR-584-5p probably regulates c-Myc levels indirectly. To test that possibility, it was assessed whether miR-584-5p target genes may regulate c-Myc levels in MB. Moreover, eIF4E1 (not eIF4E3) induced c-Myc protein expression in diffuse B-cell lymphoma cells (Landon, A. L. et al. Nat Commun 5, 5413, (2014)). […] Cell viability was assessed using alamarBlue. The p-value was calculated using one-way ANOVA followed by Sidak's multiple-comparisons test. […]
# PGC-1α = test: qRT-PCR of PGC-1α expression; conditions: miR-584-5p-treated MB cells
# Description: One such gene is peroxisome proliferator-activated receptor gamma coactivator 1-α, which codes for PGC-1α protein, which HDAC1 inhibits in brown adipocytes (Li, F. et al. J Biol Chem 291, 4523-4536, (2016)). The results disclosed herein reveal that PGC-1α expression is increased in miR-584-5p-treated MB cells (FIG. 10). […] The data in FIG. 10 represent Log 2 ratio tumor/cerebellum control. Data mined from GSE28245. ***, p<0.001; ** , p<0.01; * , p<0.05.
# VCR disrupts the integrity of the mitotic spindle and destabilizes microtubules (George, P., Journey, L. J. & Goldstein, M. N. J Natl Cancer Inst 35, 355-375 (1965)). Therefore, it was tested whether miR-584-5p and its target genes might affect microtubule dynamics. First, expression of tubulins was deteremined because VCR resistance has been associated with altered expression of tubulin isotypes (Sirotnak, F. M., Danenberg, K. D., Chen, J., Fritz, F. & Danenberg, P. V. Biochem Biophys Res Commun 269, 21-24, (2000)). […] In FIG. 12A, the p-values were calculated using standard Student t-tests. Error bars represent mean±SEM. ****, p<0.0001. […] The p-values were calculated using standard Student t-tests. Error bars represent mean±SEM. […] In FIG. 11F, the p-values were calculated using standard Student t-tests. […] In FIG. 11H, The p-values were calculated using standard Student t-tests. […] Quantitative real-time PCR. […]
substance,measurement,setting,value
miR-584-5p: microRNA mimic; nucleotide sequence UUAUGGUUUGCCUGGGACUGAG (SEQ ID NO: 1); purchased from Thermofisher (chemistry not given here),mitotic catastrophe features,MB cells; miR-584-5p-overexpressing MB cells,"many cells with multipolar metaphase/anaphase, spindles with unorganized poles, micronuclei, and aneuploidy"
same,mitotic spindle defects,MB cells; β-tubulin/DAPI staining,variety of mitotic spindle defects
same,growth-promoting effect of c-Myc overexpression,D556Med cells,rescues cancer growth-promoting effects of c-Myc
same,PGC-1α expression,PGC-1α,increased
